This is an account of results in PMC10764104, “Discovery of Molecular Glue Degraders via Isogenic Morphological Profiling” (ACS Chemical Biology, 2023).

For one series, the target named is T1, GSPT2 (Homo sapiens, UniProt Q8IYD1+Q96SW2).
T1 construct: endogenous in cells; host or cells: RKO WT or RKO CRBN KO
Put plainly: Western blot analysis of GSPT1 and GSPT2 degradation in RKO WT or CRBN KO cells. The format is cell-based. The protocol:
(A) Structure of FL2-14 comprising fluorosulfate scaffold FL2 (black) and tail group modification 14 (blue). (B) DMSO-normalized quantitative proteomics after 16 h of treatment with FL2-14 (10 μM) in RKO WT (n = 2). […] (C) Structural alignment of AlphaFold models of GSPT1 (AF-P15170-F1-model_v4 in gray) and GSPT2 (AF-Q8IYD1-F1-model_v4 in blue). (D) Validation of GSPT2 degradation by FL2-14. […] (E) Dose–response of FL2-14 in RKO and HEK293T cells. Cells were treated with the FL2-14 (0 to 10 μM) for 16 h. (F) Degradation of GSPT2^WT or GSPT2^G566N. […]
Analysis of targeted protein degradation of GSPT1 and GSPT2 via western blot For degradation assays 800 000 RKO WT or CRBN KO cells were seeded 1 day prior to the treatment in 6 well plates.
Then, cells were treated with 10 µM of the compounds for 16 hours if not otherwise stated. Cells were harvested, lysed for 30 min at 37°C in lysis buffer (1x PBS, 1% SDS, 2 mM MgCl2, 1x Halt Protease inhibitor cocktail, 50 Units Benzonase) and cleared for 30 min at 18 000 x g at 4°C. Protein concentration was determined with the Pierce 660 nm Protein Assay using the Ionic Detergent Compatibility Reagent (Thermo Scientific). 10 µg total proteome were subjected to western blot analysis by adding 4x Bolt™ LDS Sample Buffer (Thermo Scientific). Samples were boiled at 95°C for 5 min and subjected to gel electrophoresis with Bolt™ 4‐12% Bis‐Tris Plus Gels (Thermo Scientific) with Bolt™ MES SDS Running Buffer (Thermo Scientific). Membranes were blocked with 5% fat‐free milk in TBS‐T (20 mM Tris, 150 mM NaCl, 0.1% Tween, pH 7.6) for 1 h at room temperature and washed subsequently 3x 5 min with TBS‐
T. Afterwards, they were incubated for 1 h at room temperature with either GSPT1 antibody (Abcam ab49878, rabbit, […]
rabbit, 1:10 000), CRBN (Cell Signaling Technologies, CST71810S, rabbit, 1:1000), or GAPDH (SantaCruz sc‐47724, mouse, 1:1 000). Followed by washing 3x 5 min with TBS‐T and incubation for 1 h at room temperature with either Goat ANTI‐RABBIT IgG StarBright™ Blue 700 (Bio‐Rad, #12004162, 1:10 000) or Goat anti‐Mouse IgG (H+L) Cross‐ Adsorbed Secondary Antibody, DyLight™ 800 (Bio‐Rad, STAR117D800GA, 1:10 000) fluorophore‐conjugated

In a further series the target is T2, IKZF1 (Homo sapiens, UniProt Q13422).
T2 construct: endogenous in cells; host or cells: MV4.11
Description: Western blot analysis of IKZF1 degradation in MV4.11 cells. The note with it: 16 h. The format is cell-based. On the technique in general: A western blot detects proteins with antibodies after separation by electrophoresis.

The test system of the next series is RKO WT cells. To be noted: 48 h, up to 13.5 μM tested. The text has this: Prior to screening the compound library in the isogenic CPA, we assessed their CRBN binding affinities using a fluorescence-polarization-based competition assay with recombinant DDB1-CRBN and the fluorescent tracer 16 (Figure S2). […] We also assessed the cytotoxicity of the CRBN binders in RKO wild-type (WT) cells to determine the appropriate treatment concentration.
Assessment of gene expression and essentiality in RKO WT
Public datasets on the transcriptome and essentiality of a protein‐encoding gene for RKO (cell line ID: ACH‐000943) were retrieved from DepMap Public 23Q2 (https://depmap.org/portal/, accessed on 14 August 2023). […]
Fluorescence Polarization‐based competition assay
Fluorescence Polarization assays were performed in 384‐well, Low Volume, Black, Round Bottom, Polystyrene Nonbinding surface Microplates (Corning, #4514). […] Fluorescence polarization values were determined with a PerkinElmer Envision reader with FITC FP dual mirror and FITC FP 480 excitation filter and FITC FP 535 emission filters. Fluorescence polarization values of a 10x serial dilution (10 nM to 100 µM) of the test compounds were determined in triplicates. EC50 values were calculated with GraphPad Prism software (version 10.0.2) with a non‐linear fit function (4PL sigmoidal curve fit) adjusting the bottom constrain to the FP value of free tracer. […]

T1 sequence (Q8IYD1 whole entry): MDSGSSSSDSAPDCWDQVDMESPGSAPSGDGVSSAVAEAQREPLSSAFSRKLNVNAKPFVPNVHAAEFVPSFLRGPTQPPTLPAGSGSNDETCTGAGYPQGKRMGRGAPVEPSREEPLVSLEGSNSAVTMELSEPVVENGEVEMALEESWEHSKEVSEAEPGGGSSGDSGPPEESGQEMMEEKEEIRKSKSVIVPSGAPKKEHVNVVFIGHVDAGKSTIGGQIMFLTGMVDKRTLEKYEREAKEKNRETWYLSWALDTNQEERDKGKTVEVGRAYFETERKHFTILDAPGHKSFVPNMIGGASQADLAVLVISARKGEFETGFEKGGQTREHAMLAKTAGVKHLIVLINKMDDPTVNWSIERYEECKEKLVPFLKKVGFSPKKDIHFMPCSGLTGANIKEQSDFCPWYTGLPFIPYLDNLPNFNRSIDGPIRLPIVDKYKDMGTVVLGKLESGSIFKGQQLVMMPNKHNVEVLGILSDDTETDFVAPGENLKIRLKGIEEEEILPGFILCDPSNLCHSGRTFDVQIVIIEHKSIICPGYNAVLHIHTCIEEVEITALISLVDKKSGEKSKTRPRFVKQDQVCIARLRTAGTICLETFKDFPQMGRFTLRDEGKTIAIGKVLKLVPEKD
T1 sequence (Q96SW2 whole entry): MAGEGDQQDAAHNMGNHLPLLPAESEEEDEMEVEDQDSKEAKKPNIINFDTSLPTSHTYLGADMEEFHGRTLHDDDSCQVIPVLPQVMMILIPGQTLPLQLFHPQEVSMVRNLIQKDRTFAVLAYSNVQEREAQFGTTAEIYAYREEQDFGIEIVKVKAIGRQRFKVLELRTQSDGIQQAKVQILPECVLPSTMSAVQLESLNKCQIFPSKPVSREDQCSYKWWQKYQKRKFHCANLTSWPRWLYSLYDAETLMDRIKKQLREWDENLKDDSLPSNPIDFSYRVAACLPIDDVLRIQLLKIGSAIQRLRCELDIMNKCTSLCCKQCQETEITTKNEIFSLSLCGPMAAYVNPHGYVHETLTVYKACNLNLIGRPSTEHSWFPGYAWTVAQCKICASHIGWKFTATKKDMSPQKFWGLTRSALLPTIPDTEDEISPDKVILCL
T1 sequence (Q16531 2-1140 partner limits assumed): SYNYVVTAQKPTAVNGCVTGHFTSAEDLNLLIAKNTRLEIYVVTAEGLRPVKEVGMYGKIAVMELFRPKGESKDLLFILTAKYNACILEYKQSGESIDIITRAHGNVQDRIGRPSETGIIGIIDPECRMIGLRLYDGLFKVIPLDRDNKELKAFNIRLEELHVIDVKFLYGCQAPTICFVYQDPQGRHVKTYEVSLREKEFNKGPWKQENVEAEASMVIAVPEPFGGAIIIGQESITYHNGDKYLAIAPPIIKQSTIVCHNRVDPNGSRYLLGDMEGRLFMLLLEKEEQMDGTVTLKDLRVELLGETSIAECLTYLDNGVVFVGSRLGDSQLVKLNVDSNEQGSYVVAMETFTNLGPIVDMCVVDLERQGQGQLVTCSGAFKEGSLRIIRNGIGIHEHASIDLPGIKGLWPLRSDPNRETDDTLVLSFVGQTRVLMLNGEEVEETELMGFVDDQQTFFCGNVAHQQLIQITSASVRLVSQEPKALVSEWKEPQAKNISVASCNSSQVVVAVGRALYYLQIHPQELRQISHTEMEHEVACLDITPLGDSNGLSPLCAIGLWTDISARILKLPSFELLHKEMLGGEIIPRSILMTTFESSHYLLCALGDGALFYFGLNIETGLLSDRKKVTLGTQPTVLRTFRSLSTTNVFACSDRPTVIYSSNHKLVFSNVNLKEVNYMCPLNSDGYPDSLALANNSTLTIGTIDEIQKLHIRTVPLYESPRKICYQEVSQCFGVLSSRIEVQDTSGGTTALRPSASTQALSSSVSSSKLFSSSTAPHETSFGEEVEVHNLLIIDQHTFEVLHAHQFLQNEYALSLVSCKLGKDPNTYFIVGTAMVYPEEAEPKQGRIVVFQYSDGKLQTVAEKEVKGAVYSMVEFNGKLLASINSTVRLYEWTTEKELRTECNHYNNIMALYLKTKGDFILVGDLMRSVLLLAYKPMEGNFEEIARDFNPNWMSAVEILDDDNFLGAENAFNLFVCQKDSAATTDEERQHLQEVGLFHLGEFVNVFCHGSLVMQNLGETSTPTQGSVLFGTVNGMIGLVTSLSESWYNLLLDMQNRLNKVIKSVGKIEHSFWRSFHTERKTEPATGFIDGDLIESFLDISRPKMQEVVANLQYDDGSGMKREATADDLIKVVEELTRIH
T2 sequence (Q96SW2 whole entry partner): as the sequence (Q96SW2 whole entry) above
T2 sequence (Q16531 2-1140 partner limits assumed): as the sequence (Q16531 2-1140 partner limits assumed) above
T2 sequence (Q13422 whole entry): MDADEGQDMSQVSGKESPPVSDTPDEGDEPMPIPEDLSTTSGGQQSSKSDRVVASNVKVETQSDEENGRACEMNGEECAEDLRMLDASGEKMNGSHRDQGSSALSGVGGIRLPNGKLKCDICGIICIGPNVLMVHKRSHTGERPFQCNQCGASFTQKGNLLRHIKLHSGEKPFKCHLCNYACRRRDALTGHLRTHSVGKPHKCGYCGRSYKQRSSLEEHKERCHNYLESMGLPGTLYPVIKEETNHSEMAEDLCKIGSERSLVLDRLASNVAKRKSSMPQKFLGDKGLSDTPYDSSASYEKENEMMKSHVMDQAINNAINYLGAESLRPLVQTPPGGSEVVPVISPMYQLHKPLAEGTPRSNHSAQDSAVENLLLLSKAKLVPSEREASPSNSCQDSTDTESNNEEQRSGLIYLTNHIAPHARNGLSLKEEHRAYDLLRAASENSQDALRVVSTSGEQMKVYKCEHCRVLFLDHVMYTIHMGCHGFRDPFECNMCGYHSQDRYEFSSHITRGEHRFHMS

As for `CN(Cc1ncc(C2CC2)o1)S(=O)(=O)Oc1ccc(Nc2ccc3c(c2)C(=O)N(C2CCC(=O)NC2=O)C3=O)cc1` (stereo not drawn) [FL2-14], the “treatment time at which GSPT2 degradation is apparent” value on GSPT2 (10 µM, time-course in RKO and HEK293T cells) came out at 5 h. Also, on GSPT2 (RKO CRBN KO, 10 μM, 16 h), the “GSPT2 degradation in RKO CRBN KO cells” value is recorded as “completely abrogated”. Besides, the “degradation of GSPT2 versus GSPT1 (Western blot)” value on GSPT2 (RKO WT, 10 μM, 16 h) is on record as “preferentially degraded GSPT2 over GSPT1”. Further, the “concentration range of GSPT2 degradation (dose-response)” value on GSPT2 (RKO, 0 to 10 μM, 16 h) is “submicromolar range”. Moreover, the IKZF1 degradation result on IKZF1 is given as “did not induce degradation of IKZF1”. Moreover, the “cytotoxicity (CellTiter-Glo)” value in the series on RKO WT cells is listed as “not cytotoxic”.
